Laboratory results from patent US20070249620A1, “Urea Derivative” (priority 2004, published 2007).

Compound | melting point
CC(C)(C)OC(=O)N1CCN(c2ccc(NC(=O)Nc3ccccc3Cl)cc2)CC1 [Example 15, 4-{4-[3-(2-chloro-phenyl)-ureido]-phenyl}-piperazine-1-carboxylic acid tert-butyl ester] | 196 to 197 °C
CCc1cccc(C)c1NC(=O)N1CCN(c2ccc(NC(=O)Nc3cc(C)ccc3OC)cc2)CC1 [Example 63, 4-{4-[3-(2-methoxy-5-methyl-phenyl)-ureido]-phenyl}-piperazine-1-carboxylic acid (2-ethyl-6-methyl-phenyl)-amide] | 207 to 209 °C
COc1ccc(F)cc1NC(=O)Nc1ccc(N2CCN(C(=O)OC(C)(C)C)CC2)nc1 [Example 45, 4-{5-[3-(5-fluoro-2-methoxy-phenyl)-ureido]-pyridin-2-yl}-piperazine-1-carboxylic acid tert-butyl ester] | 200 to 201 °C
CC(C)(C)OC(=O)N1CCN(c2ccc(NC(=O)Nc3cc(Cl)ccc3Oc3ccccc3)cc2)CC1 [Example 8, 4-{4-[3-(5-chloro-2-phenoxy-phenyl)-ureido]-phenyl}-piperazine-1-carboxylic acid tert-butyl ester] | 94 to 96 °C
Cc1ccc(Cl)c(NC(=O)Nc2ccc(N3CCN(C(=O)OC(C)(C)C)CC3)cc2)c1 [Example 29, 4-{4-[3-(2-chloro-5-methyl-phenyl)-ureido]-phenyl}-piperazine-1-carboxylic acid tert-butyl ester] | 222 to 224 °C
COc1ccc(Cl)cc1NC(=O)Nc1ccc(N2CCN(C(=O)OC(C)(C)C)CC2)cc1 [Example 1, 4-{4-[3-(5-chloro-2-methoxy-phenyl)-ureido]-phenyl}-piperazine-1-carboxylic acid tert-butyl ester] | 205 °C
CCc1ccccc1NC(=O)Nc1ccc(N2CCN(C(=O)OC(C)(C)C)CC2)cc1 [Example 17, 4-{4-[3-(2-ethyl-phenyl)-ureido]-phenyl}-piperazine-1-carboxylic acid tert-butyl ester] | 162 °C
CCOc1ccc(C)cc1NC(=O)Nc1ccc(N2CCN(C(=O)OC(C)(C)C)CC2)cc1 [Example 41, 4-{4-[3-(2-ethoxy-5-methyl-phenyl)-ureido]-phenyl}-piperazine-1-carboxylic acid tert-butyl ester] | 105 to 107 °C
CN(C)c1ccc(NC(=O)Nc2ccc(N3CCN(C(=O)OC(C)(C)C)CC3)cc2)cc1 [Example 20, 4-{4-[3-(4-dimethylamino-phenyl)-ureido]-phenyl}-piperazine-1-carboxylic acid tert-butyl ester] | 207 °C
COc1ccc(C)cc1NC(=O)Nc1ccc(N2CCN(C(=O)Nc3ccc(C)cc3C)CC2)cc1 [Example 71, 4-{4-[3-(2-methoxy-5-methyl-phenyl)-ureido]-phenyl}-piperazine-1-carboxylic acid (2,4-dimethyl-phenyl)-amide] | 196 to 199 °C
COc1ccc(C)cc1NC(=O)Nc1ccc(N2CCN(C(=O)Nc3ccc(Br)cc3C)CC2)cc1 [Example 70, 4-{4-[3-(2-methoxy-5-methyl-phenyl)-ureido]-phenyl}-piperazine-1-carboxylic acid (4-bromo-2-methyl-phenyl)-amide] | 191 to 193 °C
CC(C)(C)OC(=O)N1CCN(c2ccc(NC(=O)Nc3cccc(Cl)c3)cc2)CC1 [Example 32, 4-{4-[3-(3-chloro-phenyl)-ureido]-phenyl}-piperazine-1-carboxylic acid tert-butyl ester] | 163 °C
CC(C)(C)OC(=O)N1CCN(c2ccc(NC(=O)Nc3cc(Cl)ccc3N)cc2)CC1 [Example 11, 4-{4-[3-(2-amino-5-chloro-phenyl)-ureido]-phenyl}-piperazine-1-carboxylic acid tert-butyl ester] | 187 to 189 °C
CC(C)(C)OC(=O)N1CCN(c2ccc(NC(=O)Nc3cc(C(F)(F)F)ccc3Cl)cc2)CC1 [Example 28, 4-{4-[3-(2-chloro-5-trifluoromethyl-phenyl)-ureido]-phenyl}-piperazine-1-carboxylic acid tert-butyl ester] | 221 to 223 °C
CCc1ccc(NC(=O)Nc2ccc(N3CCN(C(=O)OC(C)(C)C)CC3)cc2)cc1 [Example 24, 4-{4-[3-(4-ethyl-phenyl)-ureido]-phenyl}-piperazine-1-carboxylic acid tert-butyl ester] | 204 to 205 °C
COc1ccc(C)cc1NC(=O)Nc1ccc(N2CCN(C(=O)Nc3cccc(C)c3C)CC2)cc1 [Example 108, 4-{4-[3-(2-methoxy-5-methyl-phenyl)-ureido]-phenyl}-piperazine-1-carboxylic acid (2,3-dimethyl-phenyl)-amide] | 217 to 219 °C
CCCCc1ccc(NC(=O)Nc2ccc(N3CCN(C(=O)OC(C)(C)C)CC3)cc2)cc1 [Example 34, 4-{4-[3-(4-butyl-phenyl)-ureido]-phenyl}-piperazine-1-carboxylic acid tert-butyl ester] | 167 to 170 °C
CCc1cccc(NC(=O)Nc2ccc(N3CCN(C(=O)OC(C)(C)C)CC3)cc2)c1 [Example 30, 4-{4-[3-(3-ethyl-phenyl)-ureido]-phenyl}-piperazine-1-carboxylic acid tert-butyl ester] | 160 °C
CCOP(=O)(Cc1ccc(NC(=O)Nc2ccc(N3CCN(C(=O)Nc4c(C)cccc4Cl)CC3)cc2)cc1)OCC | 218 to 220 °C
COc1ccc(C)cc1NC(=O)Nc1ccc(N2CCN(C(=O)Nc3ccc(F)cc3F)CC2)cc1 [Example 72, 4-{4-[3-(2-methoxy-5-methyl-phenyl)-ureido]-phenyl)-piperazine-1-carboxylic acid (2,4-difluoro-phenyl)-amide] | 201 to 203 °C
COc1ccc(C)cc1NC(=O)Nc1ccc(N2CCN(c3ncccn3)CC2)cc1 [Example 193, 1-(2-methoxy-5-methyl-phenyl)-3-[4-(4-pyrimidin-2-yl-piperazin-1-yl)-phenyl]-urea] | 220 to 221 °C
CCOc1ccc(Cl)cc1NC(=O)Nc1ccc(N2CCN(C(=O)OC(C)(C)C)CC2)cc1 [Example 43, 4-{4-[3-(5-chloro-2-ethoxy-phenyl)-ureido]-phenyl}-piperazine-1-carboxylic acid tert-butyl ester] | 165 to 167 °C
CC(C)(C)OC(=O)N1CCN(c2ccc(NC(=O)Nc3cccc(Oc4ccccc4)c3)cc2)CC1 [Example 3, 4-{4-[3-(3-phenoxy-phenyl)-ureido]-phenyl}-piperazine-1-carboxylic acid tert-butyl ester] | 172 °C
COc1ccc(C)cc1NC(=O)Nc1ccc(N2CCN(C(=O)Nc3ccccc3F)CC2)cc1 [Example 52, 4-{4-[3-(2-methoxy-5-methyl-phenyl)-ureido]-phenyl}-piperazine-1-carboxylic acid (2-fluoro-phenyl)-amide] | 200 to 201 °C
COc1ccc(C)cc1NC(=O)Nc1ccc(N2CCC(C(=O)c3ccccc3)CC2)nc1 [Example 205, 1-(4-benzoyl-3,4,5,6-tetrahydro-2H-[1,2′]bipyridinyl-5′-yl)-3-(2-methoxy-5-methyl-phenyl)-urea] | 193 to 194 °C
Cc1ccc(C)c(NC(=O)Nc2ccc(N3CCN(C(=O)OC(C)(C)C)CC3)cc2)c1 [Example 19, 4-{4-[3-(2,5-dimethyl-phenyl)-ureido]-phenyl}-piperazine-1-carboxylic acid tert-butyl ester] | 219 to 220 °C
